Reference: ChEMBL document CHEMBL3297661, “1-Substituted-5-[(3,5-dinitrobenzyl)sulfanyl]-1H-tetrazoles and their isosteric analogs: A new class of selective antitubercular agents active against drug-susceptible and multidrug-resistant mycobacteria” (Eur J Med Chem, 2014)
In brackets after ≈: the same amount, converted by molar mass.

Columns and labels:
[1] = system: Mycobacterium tuberculosis; test: Antimycobacterial activity against Mycobacterium tuberculosis H37Rv; format: functional
Pseudomonas aeruginosa [2] = test: Antibacterial activity against Pseudomonas aeruginosa ATCC 9027 after 48 hrs by broth microdilution method; format: functional; details: ATCC 9027, 48 h
Candida albicans [3] = test: Antifungal activity against Candida albicans ATCC 44859 after 24 hrs by broth microdilution method; format: functional; details: ATCC 44859, 24 h
Candida albicans [4] = test: Antifungal activity against Candida albicans ATCC 44859 after 48 hrs by broth microdilution method; format: functional; details: ATCC 44859, 48 h
Candida tropicalis [5] = test: Antifungal activity against Candida tropicalis 156 after 24 hrs by broth microdilution method; format: functional; details: Candida tropicalis, 156, 24 h
Candida tropicalis [6] = test: Antifungal activity against Candida tropicalis 156 after 48 hrs by broth microdilution method; format: functional; details: Candida tropicalis, 156, 48 h
Pichia kudriavzevii [7] = test: Antifungal activity against Candida krusei E28 after 24 hrs by broth microdilution method; format: functional; details: E28, 24 h
Pichia kudriavzevii [8] = test: Antifungal activity against Candida krusei E28 after 48 hrs by broth microdilution method; format: functional; details: E28, 48 h
Nakaseomyces glabratus [9] = test: Antifungal activity against Candida glabrata 20/I after 24 hrs by broth microdilution method; format: functional
Nakaseomyces glabratus [10] = test: Antifungal activity against Candida glabrata 20/I after 48 hrs by broth microdilution method; format: functional
Trichosporon asahii [11] = test: Antifungal activity against Trichosporon asahii 1188 after 24 hrs by broth microdilution method; format: functional; details: Trichosporon asahii, 1188, 24 h
Trichosporon asahii [12] = test: Antifungal activity against Trichosporon asahii 1188 after 48 hrs by broth microdilution method; format: functional; details: Trichosporon asahii, 1188, 48 h
Aspergillus fumigatus [13] = test: Antifungal activity against Aspergillus fumigatus 231 after 24 hrs by broth microdilution method; format: functional, organism-based; details: Aspergillus fumigatus, 231, 24 h
Aspergillus fumigatus [14] = test: Antifungal activity against Aspergillus fumigatus 231 after 48 hrs by broth microdilution method; format: functional, organism-based; details: Aspergillus fumigatus, 231, 48 h
Lichtheimia corymbifera [15] = test: Antifungal activity against Absidia corymbifera 272 after 24 hrs by broth microdilution method; format: functional, organism-based; details: Lichtheimia corymbifera, 272, 24 h
Lichtheimia corymbifera [16] = test: Antifungal activity against Absidia corymbifera 272 after 48 hrs by broth microdilution method; format: functional, organism-based; details: Lichtheimia corymbifera, 272, 48 h
[17] = system: Trichophyton mentagrophytes; test: Antifungal activity against Trichophyton mentagrophytes 445 after 72 hrs by broth microdilution method; format: functional, organism-based; details: Trichophyton mentagrophytes, 445, 72 h
[18] = system: Trichophyton mentagrophytes; test: Antifungal activity against Trichophyton mentagrophytes 445 after 120 hrs by broth microdilution method; format: functional, organism-based; details: Trichophyton mentagrophytes, 445, 120 h
[19] = Cytotoxicity against human HeLa cells assessed as cell viability at 30 uM after 48 hrs by MTT assay; format: cell-based; details: read-out: Activity
[20] = Cytotoxicity against human HuH7 cells assessed as cell viability at 30 uM after 48 hrs by MTT assay; format: cell-based, Huh-7; details: read-out: Activity
[21] = Cytotoxicity against human HepG2 cells assessed as cell viability at 30 uM after 48 hrs by MTT assay; format: cell-based; details: read-out: Activity
[22] = Cytotoxicity against MDCK2 cells assessed as cell viability at 30 uM after 48 hrs by MTT assay; format: cell-based, Canis lupus familiaris, MDCK-II; details: dog, read-out: Activity
HeLa = test: Cytotoxicity against human HeLa cells assessed as reduction in cell viability after 48 hrs by MTT assay; format: cell-based
[23] = Cytotoxicity against human HuH7 cells assessed as reduction in cell viability after 48 hrs by MTT assay; format: cell-based; details: Huh-7, 48 h
[24] = Cytotoxicity against MDCK2 cells assessed as reduction in cell viability after 48 hrs by MTT assay; format: cell-based; details: Canis lupus familiaris, MDCK-II
HepG2 = test: Cytotoxicity against human HepG2 cells assessed as reduction in cell viability after 48 hrs by MTT assay; format: cell-based; details: HepG2, 48 h
[25] = system: Mycobacterium tuberculosis; test: Antimycobacterial activity against Mycobacterium tuberculosis CNCTC My 331/88 after 14 days by micromethod; format: functional; details: CNCTC My 331/88, 336 h
[26] = system: Mycobacterium tuberculosis; test: Antimycobacterial activity against Mycobacterium tuberculosis CNCTC My 331/88 after 21 days by micromethod; format: functional; details: CNCTC My 331/88, 504 h
Mycobacterium avium [27] = test: Antimycobacterial activity against Mycobacterium avium CNCTC My 330/88 after 14 days by micromethod; format: functional; details: CNCTC My 330/88, 336 h
Mycobacterium avium [28] = test: Antimycobacterial activity against Mycobacterium avium CNCTC My 330/88 after 21 days by micromethod; format: functional; details: CNCTC My 330/88, 504 h
Mycobacterium kansasii [29] = test: Antimycobacterial activity against Mycobacterium kansasii CNCTC My 235/80 after 7 days by micromethod; format: functional; details: CNCTC My 235/80, 168 h
Mycobacterium kansasii [30] = test: Antimycobacterial activity against Mycobacterium kansasii CNCTC My 235/80 after 14 days by micromethod; format: functional; details: CNCTC My 235/80, 336 h
Mycobacterium kansasii [31] = test: Antimycobacterial activity against Mycobacterium kansasii CNCTC My 235/80 after 21 days by micromethod; format: functional; details: CNCTC My 235/80, 504 h
Mycobacterium kansasii [32] = test: Antimycobacterial activity against Mycobacterium kansasii 6509/96 after 7 days by micromethod; format: functional; details: 6509/96, 168 h
Mycobacterium kansasii [33] = test: Antimycobacterial activity against Mycobacterium kansasii 6509/96 after 14 days by micromethod; format: functional; details: 6509/96, 336 h
Mycobacterium kansasii [34] = test: Antimycobacterial activity against Mycobacterium kansasii 6509/96 after 21 days by micromethod; format: functional; details: 6509/96, 504 h
Staphylococcus aureus [35] = test: Antibacterial activity against Staphylococcus aureus ATCC 6538 after 24 hrs by broth microdilution method; format: functional; details: ATCC 6538, 24 h
Staphylococcus aureus [36] = test: Antibacterial activity against Staphylococcus aureus ATCC 6538 after 48 hrs by broth microdilution method; format: functional; details: ATCC 6538, 48 h
Staphylococcus aureus [37] = test: Antibacterial activity against methicillin-resistant Staphylococcus aureus H 5996/08 after 24 hrs by broth microdilution method; format: functional; details: H 5996/08, 24 h
Staphylococcus aureus [38] = test: Antibacterial activity against methicillin-resistant Staphylococcus aureus H 5996/08 after 48 hrs by broth microdilution method; format: functional; details: H 5996/08, 48 h
[39] = system: Staphylococcus epidermidis; test: Antibacterial activity against Staphylococcus epidermidis H 6966/08 after 24 hrs by broth microdilution method; format: functional; details: H 6966/08, 24 h
[40] = system: Staphylococcus epidermidis; test: Antibacterial activity against Staphylococcus epidermidis H 6966/08 after 48 hrs by broth microdilution method; format: functional; details: H 6966/08, 48 h
Enterococcus faecalis [41] = test: Antibacterial activity against Enterococcus faecalis J 14365/08 after 24 hrs by broth microdilution method; format: functional; details: J 14365/08, 24 h
Enterococcus faecalis [42] = test: Antibacterial activity against Enterococcus faecalis J 14365/08 after 48 hrs by broth microdilution method; format: functional; details: J 14365/08, 48 h
Escherichia coli [43] = test: Antibacterial activity against Escherichia coli ATCC 8739 after 24 hrs by broth microdilution method; format: functional; details: ATCC 8739, ATCC 8739, 24 h
Escherichia coli [44] = test: Antibacterial activity against Escherichia coli ATCC 8739 after 48 hrs by broth microdilution method; format: functional; details: ATCC 8739, ATCC 8739, 48 h
Klebsiella pneumoniae [45] = test: Antibacterial activity against Klebsiella pneumoniae D 11750/08 after 24 hrs by broth microdilution method; format: functional; details: D 11750/08, 24 h
Klebsiella pneumoniae [46] = test: Antibacterial activity against Klebsiella pneumoniae D 11750/08 after 48 hrs by broth microdilution method; format: functional; details: D 11750/08, 48 h
Klebsiella pneumoniae [47] = test: Antibacterial activity against extended spectrum beta-lactamase producing Klebsiella pneumoniae J 14368/08 after 24 hrs by broth microdilution method; format: functional; details: J 14368/08, 24 h
Klebsiella pneumoniae [48] = test: Antibacterial activity against extended spectrum beta-lactamase producing Klebsiella pneumoniae J 14368/08 after 48 hrs by broth microdilution method; format: functional; details: J 14368/08, 48 h
Pseudomonas aeruginosa [49] = test: Antibacterial activity against Pseudomonas aeruginosa ATCC 9027 after 24 hrs by broth microdilution method; format: functional; details: ATCC 9027, 24 h

C[C@H]1COC2(CCN(c3nc(=O)c4cc(C(F)(F)F)cc([N+](=O)[O-])c4s3)CC2)O1 [BTZ-043]
MIC [1]: 0.0023 µM (≈ 0.000992 µg/mL)

C[C@]1(COc2ccc(N3CCC(Oc4ccc(OC(F)(F)F)cc4)CC3)cc2)Cn2cc([N+](=O)[O-])nc2O1 [DELAMANID]
MIC [1]: 0.02 µM (≈ 0.0107 µg/mL)

O=[N+]([O-])c1cc(CSc2nnnn2C2CCCCC2)cc([N+](=O)[O-])c1
IC95 (Pseudomonas aeruginosa [2]): > 500 µM | IC80 (Candida albicans [3]): > 500 µM | IC80 (Candida albicans [4]): > 500 µM | IC80 (Candida tropicalis [5]): > 500 µM | IC80 (Candida tropicalis [6]): > 500 µM | IC80 (Pichia kudriavzevii [7]): > 500 µM | IC80 (Pichia kudriavzevii [8]): > 500 µM | IC80 (Nakaseomyces glabratus [9]): > 500 µM | IC80 (Nakaseomyces glabratus [10]): > 500 µM | IC80 (Trichosporon asahii [11]): > 500 µM | IC80 (Trichosporon asahii [12]): > 500 µM | IC50 (Aspergillus fumigatus [13]): > 500 µM | IC50 (Aspergillus fumigatus [14]): > 500 µM | IC50 (Lichtheimia corymbifera [15]): > 500 µM | IC50 (Lichtheimia corymbifera [16]): > 500 µM | IC50 [17]: > 500 µM | IC50 [18]: > 500 µM | viability at 48 h, 30 µM [19]: 84% | viability at 48 h, 30 µM [20]: 128% | viability at 48 h, 30 µM [21]: 88% | viability at 48 h, 30 µM [22]: 98% | IC50 (HeLa): > 30 µM | IC50 [23]: > 30 µM | IC50 [24]: > 30 µM | IC50 (HepG2): > 30 µM | MIC [25]: 1 µM (≈ 0.364 µg/mL) | MIC [26]: 1 µM (≈ 0.364 µg/mL) | MIC (Mycobacterium avium [27]): 16 µM (≈ 5.83 µg/mL) | MIC (Mycobacterium avium [28]): 32 µM (≈ 11.7 µg/mL) | MIC (Mycobacterium kansasii [29]): 4 µM (≈ 1.46 µg/mL) | MIC (Mycobacterium kansasii [30]): 4 µM (≈ 1.46 µg/mL) | MIC (Mycobacterium kansasii [31]): 4 µM (≈ 1.46 µg/mL) | MIC (Mycobacterium kansasii [32]): 2 µM (≈ 0.729 µg/mL) | MIC (Mycobacterium kansasii [33]): 2 µM (≈ 0.729 µg/mL) | MIC (Mycobacterium kansasii [34]): 4 µM (≈ 1.46 µg/mL) | IC95 (Staphylococcus aureus [35]): > 500 µM | IC95 (Staphylococcus aureus [36]): > 500 µM | IC95 (Staphylococcus aureus [37]): > 500 µM | IC95 (Staphylococcus aureus [38]): > 500 µM | IC95 [39]: > 500 µM | IC95 [40]: > 500 µM | IC95 (Enterococcus faecalis [41]): > 500 µM | IC95 (Enterococcus faecalis [42]): > 500 µM | IC95 (Escherichia coli [43]): > 500 µM | IC95 (Escherichia coli [44]): > 500 µM | IC95 (Klebsiella pneumoniae [45]): > 500 µM | IC95 (Klebsiella pneumoniae [46]): > 500 µM | IC95 (Klebsiella pneumoniae [47]): > 500 µM | IC95 (Klebsiella pneumoniae [48]): > 500 µM | IC95 (Pseudomonas aeruginosa [49]): > 500 µM
